Data from publication PMC8617944, “Preclinical Pharmacokinetics and Acute Toxicity in Rats of 5-{[(2E)-3-Bromo-3-carboxyprop-2-enoyl]amino}-2-hydroxybenzoic Acid: A Novel 5-Aminosalicylic Acid Derivative with Potent Anti-Inflammatory Activity” (Molecules, 2021).
“Also recorded” adds a separate entry of the source.

Key:
[1] = Plasma protein binding assay (ultrafiltration, RP-HPLC); type: in vitro ADME, Wistar rats; details: rat plasma
Procedure: Different quantities of C1 stock solution at 10 mg/mL were spiked into 600 µL of freshly obtained blank rat plasma to give a final concentration of 1, 5, 10, and 20 µg/mL. The resulting samples were incubated at 37 °C for 4 h. After incubation, an aliquot of 100 µL was removed to determine the total concentration, and another aliquot of 500 µL was transferred to a 10 kD cut-off ultrafiltration device (Millipore Corporation, Burlington, MA, USA). Subsequently, samples were centrifuged at 2000× g and 37 °C for 2 h. The free drug concentration of C1 was measured by evaluating 100 µL of ultrafiltrate with RP-HPLC, interpolating the main areas of the samples into a standard curve constructed with known amounts of C1. The percentage of protein binding was calculated with the following formula (1). Protein binding ratio (%) = […](1)

[2] = Blood/plasma partitioning (BP ratio); type: in vitro ADME, rats; details: rat whole blood, 37 °C, 4 h
Procedure: Appropriate amounts of C1 stock solution at 10 mg/mL were spiked into whole blood to obtain samples (prepared in triplicate) at a final concentration of 1, 5, and 10 and 20 μg/mL (in a final volume of 600 μL), to be incubated at 37 °C for 4 h. Plasma was harvested from blood samples by centrifuging at 8000 rpm for 15 min, and then the concentration of C1 was established using the RP-HPLC method and interpolating the response area into a standard curve prepared with C1 and blank plasma. The BP ratio was calculated by dividing 5 and 10 µg/mL, respectively, by the concentration found in plasma separated from blood samples. The concentration of C1 in blood cells is assumed to be equal to its unbound concentration in plasma.

[3] = Stability of stock solutions; type: physicochemical; details: 1000 μg/mL in acetonitrile-methanol (50:50, v/v), 2–4 °C
Procedure: Six stock solutions at 1000 μg/mL of C1 were prepared by dissolving 10 mg in a mixture of acetonitrile-methanol (50:50, v/v), adjusting the volume in a volumetric flask of 10 mL and storing the final solution at 2–4 °C. […] Calibration standards were prepared daily from the stock solution at concentrations of 0.1, 0.5, 1, 5, 10, 50, and 100 μg/mL, and calibration curves were constructed in triplicate by plotting known concentrations of the standard versus the detector response area (File S4).

[4] = test system: 12-O-tetradecanoylphorbol acetate (TPA)-induced mouse ear edema; set-up: method as in ref 32, 33 = [32]; doi:10.1016/j.arabjc.2016.12.026; 32. Cabrera Pérez L.C. Gutiérrez Sánchez M. Mendieta Wejebe J.E. Hernández Rodríguez M. Fragoso Vázquez M.J. Salazar J.R. Correa Basurto J. Padilla Martínez I.I. Rosales Hernández M.C. Novel 5-aminosa || [33]; 33. Correa Basurto J. Rosales Hernández M.C. Mendieta Wejebe J.E. Trujillo Ferrara J.G. Padilla Martínez I.I. Ramírez Durán L.A. Alemán González Duhart D. Síntesis de un derivado del ácido 5-aminosali; details: cited from earlier work
myeloperoxidase (MPO) = test system: myeloperoxidase (MPO); set-up: method as in ref 32, 33 = [32]; doi:10.1016/j.arabjc.2016.12.026; 32. Cabrera Pérez L.C. Gutiérrez Sánchez M. Mendieta Wejebe J.E. Hernández Rodríguez M. Fragoso Vázquez M.J. Salazar J.R. Correa Basurto J. Padilla Martínez I.I. Rosales Hernández M.C. Novel 5-aminosa || [33]; 33. Correa Basurto J. Rosales Hernández M.C. Mendieta Wejebe J.E. Trujillo Ferrara J.G. Padilla Martínez I.I. Ramírez Durán L.A. Alemán González Duhart D. Síntesis de un derivado del ácido 5-aminosali; details: o-dianisidine method; cited from earlier work
[5] = set-up: method as in ref 32 = [32]; doi:10.1016/j.arabjc.2016.12.026; 32. Cabrera Pérez L.C. Gutiérrez Sánchez M. Mendieta Wejebe J.E. Hernández Rodríguez M. Fragoso Vázquez M.J. Salazar J.R. Correa Basurto J. Padilla Martínez I.I. Rosales Hernández M.C. Novel 5-aminosa; details: Osiris Property Server Explorer; cited from earlier work

**Q.** Which results are given for O=C(/C=C(/Br)C(=O)O)Nc1ccc(O)c(C(=O)O)c1 [Compound C1, 5-{[(2E)-3-bromo-3-carboxyprop-2-enoyl]amino}-2-hydroxybenzoic acid]?
**A.** fraction unbound at 4 h, 1 µg/mL ([1]; Wistar, 1 µg/mL, read-out: Percentage of Unbound Fraction ± SD (%)): 0.963 ± 0.014; fraction unbound at 4 h, 5 µg/mL ([1]; Wistar, 5 µg/mL, read-out: Percentage of Unbound Fraction ± SD (%)): 0.942 ± 0.024; fraction unbound at 4 h, 10 µg/mL ([1]; Wistar, 10 µg/mL, read-out: Percentage of Unbound Fraction ± SD (%)): 0.934 ± 0.015; fraction unbound at 4 h, 20 µg/mL ([1]; Wistar, 20 µg/mL, read-out: Percentage of Unbound Fraction ± SD (%)): 0.948 ± 0.023; fraction unbound at 4 h ([1]; Wistar, 1 to 20 μg/mL): 0.934 to 0.963; Percentage of Bound Fraction ± SD (%) ([1]; 1 µg/mL): 3.7 ± 1.1%; Percentage of Bound Fraction ± SD (%) ([1]; 5 µg/mL): 5.8 ± 2.4%; Percentage of Bound Fraction ± SD (%) ([1]; 10 µg/mL): 6.6 ± 1.5%; Percentage of Bound Fraction ± SD (%) ([1]; 20 µg/mL): 5.2 ± 2.3%; BP Ratio ± SD ([2]; 5 µg/mL): 0.54 ± 0.02; BP Ratio ± SD ([2]; 10 µg/mL): 0.40 ± 0.01; stability of stock solutions [3]: stable for three months; anti-inflammatory activity [4]: anti-inflammatory agent in mice; also recorded: comparable to that of indomethacin; also recorded: exhibited anti-inflammatory activity; inhibition of myeloperoxidase (MPO) (myeloperoxidase (MPO)): comparable to that of indomethacin; predicted toxicity index [5]: low toxicity index
